Data as given in patent US12077503B2, “Substituted cyclic amides and their use as herbicides” (FMC CORPORATION, priority 2015, dated 2024).

Legend:
Format in all cases: in vivo
[1] = tested on: sedge, umbrella (small-flower umbrella sedge, Cyperus difformis); assay: Test B flooded paddy test; conditions: Flood, 0 to 100 scale where 0 is no effect and 100 is complete control, 13 to 15 d
How it was run: (§1)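 Response scored visually against untreated controls, 0 = no effect and 100 = complete control, 13–15 d after treatment in the greenhouse. Compounds added to paddy water held 3 cm above soil surface. Treatment given at 2-leaf stage.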

[2] = tested on: ducksalad (Heteranthera limosa); assay: Test B flooded paddy test; conditions: Flood, 0 to 100 scale where 0 is no effect and 100 is complete control, 13 to 15 d
How it was run: as §1

[3] = tested on: rice (Oryra sativa); assay: Test B flooded paddy test; conditions: Flood, 0 to 100 scale where 0 is no effect and 100 is complete control, 13 to 15 d
How it was run: as §1

[4] = tested on: barnyardgrass (Echinochloa crus-galli); assay: Test B flooded paddy test; conditions: Flood, 0 to 100 scale where 0 is no effect and 100 is complete control, 13 to 15 d
How it was run: as §1

[5] = tested on: blackgrass (Alopecurus myosuroides); assay: Test A postemergence; conditions: postemergence; for Blackgrass plant response rating: 125 g ai/ha, visual injury rating on 0 to 100 scale (0 no effect, 100 complete control), approx. 10 d; for Plant response rating, Blackgrass: 500 g ai/ha, 0 to 100 scale, 0 no effect, 100 complete control
How it was run: (§2)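 Treatment is preemergence as a directed soil spray after planting, or postemergence at the one- to two-leaf stage, with test chemical in a non-phytotoxic solvent mixture plus surfactant. Plants stay in the greenhouse about 10 d before visual injury scoring on a 0 to 100 scale versus untreated controls.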

[6] = tested on: ragweed (common ragweed, Ambrosia elatior); assay: Test A postemergence; conditions: postemergence; for Ragweed plant response rating: 125 g ai/ha, visual injury rating on 0 to 100 scale (0 no effect, 100 complete control), approx. 10 d; for Plant response rating, Ragweed: 500 g ai/ha, 0 to 100 scale, 0 no effect, 100 complete control
How it was run: as §2

[7] = tested on: ryegrass, Italian (Italian ryegrass, Lolium multiflorum); assay: Test A postemergence; conditions: postemergence; for Ryegrass, Italian plant response rating: 125 g ai/ha, visual injury rating on 0 to 100 scale (0 no effect, 100 complete control), approx. 10 d; for Plant response rating, Ryegrass, Italian: 500 g ai/ha, 0 to 100 scale, 0 no effect, 100 complete control
How it was run: as §2

[8] = tested on: pigweed (Amaranthus retroflexus); assay: Test A postemergence; conditions: postemergence; for Pigweed plant response rating: 125 g ai/ha, visual injury rating on 0 to 100 scale (0 no effect, 100 complete control), approx. 10 d; for Plant response rating, Pigweed: 500 g ai/ha, 0 to 100 scale, 0 no effect, 100 complete control
How it was run: as §2

[9] = tested on: wheat (Triticum aestivum); assay: Test A postemergence; conditions: postemergence; for Wheat plant response rating: 125 g ai/ha, visual injury rating on 0 to 100 scale (0 no effect, 100 complete control), approx. 10 d; for Plant response rating, Wheat: 500 g ai/ha, 0 to 100 scale, 0 no effect, 100 complete control
How it was run: as §2

[10] = tested on: giant foxtail (Setaria faberii); assay: Test A postemergence; conditions: postemergence; for Foxtail, Giant plant response rating: 125 g ai/ha, visual injury rating on 0 to 100 scale (0 no effect, 100 complete control), approx. 10 d; for Plant response rating, Foxtail, Giant: 500 g ai/ha, 0 to 100 scale, 0 no effect, 100 complete control
How it was run: as §2

[11] = tested on: corn (Zea mays); assay: Test A postemergence; conditions: postemergence; for Corn plant response rating: 125 g ai/ha, visual injury rating on 0 to 100 scale (0 no effect, 100 complete control), approx. 10 d; for Plant response rating, Corn: 500 g ai/ha, 0 to 100 scale, 0 no effect, 100 complete control
How it was run: as §2

[12] = tested on: Kochia (Kochia scoparia); assay: Test A postemergence; conditions: postemergence; for Kochia plant response rating: 125 g ai/ha, visual injury rating on 0 to 100 scale (0 no effect, 100 complete control), approx. 10 d; for Plant response rating, Kochia: 500 g ai/ha, 0 to 100 scale, 0 no effect, 100 complete control
How it was run: as §2

[13] = tested on: Galium (catchweed bedstraw, Galium aparine); assay: Test A postemergence; conditions: postemergence; for Galium plant response rating: 125 g ai/ha, visual injury rating on 0 to 100 scale (0 no effect, 100 complete control), approx. 10 d; for Plant response rating, Galium: 500 g ai/ha, 0 to 100 scale, 0 no effect, 100 complete control
How it was run: as §2

[14] = tested on: barnyardgrass (Echinochloa crus-galli); assay: Test A postemergence; conditions: postemergence; for Barnyardgrass plant response rating: 125 g ai/ha, visual injury rating on 0 to 100 scale (0 no effect, 100 complete control), approx. 10 d; for Plant response rating, Barnyardgrass: 500 g ai/ha, 0 to 100 scale, 0 no effect, 100 complete control
How it was run: as §2

[15] = tested on: ragweed (common ragweed, Ambrosia elatior); assay: Test A preemergence; conditions: for Plant response rating, Ragweed: 125 g ai/ha, preemergence, 0 to 100 scale (0 no effect, 100 complete control); for Ragweed plant response rating (0 to 100 scale, 0 is no effect, 100 is complete control): Preemergence, 500 g ai/ha, visual injury approx. 10 d
How it was run: as §2

[16] = tested on: ryegrass, Italian (Italian ryegrass, Lolium multiflorum); assay: Test A preemergence; conditions: for Plant response rating, Ryegrass, Italian: 125 g ai/ha, preemergence, 0 to 100 scale (0 no effect, 100 complete control); for Ryegrass, Italian plant response rating (0 to 100 scale, 0 is no effect, 100 is complete control): Preemergence, 500 g ai/ha, visual injury approx. 10 d
How it was run: as §2

[17] = tested on: pigweed (Amaranthus retroflexus); assay: Test A preemergence; conditions: for Plant response rating, Pigweed: 125 g ai/ha, preemergence, 0 to 100 scale (0 no effect, 100 complete control); for Pigweed plant response rating (0 to 100 scale, 0 is no effect, 100 is complete control): Preemergence, 500 g ai/ha, visual injury approx. 10 d
[18] = tested on: giant foxtail (Setaria faberii); assay: Test A preemergence; conditions: for Plant response rating, Foxtail, Giant: 125 g ai/ha, preemergence, 0 to 100 scale (0 no effect, 100 complete control); for Foxtail, Giant plant response rating (0 to 100 scale, 0 is no effect, 100 is complete control): Preemergence, 500 g ai/ha, visual injury approx. 10 d
How it was run: as §2

[19] = tested on: Kochia (Kochia scoparia); assay: Test A preemergence; conditions: for Plant response rating, Kochia: 125 g ai/ha, preemergence, 0 to 100 scale (0 no effect, 100 complete control); for Kochia plant response rating (0 to 100 scale, 0 is no effect, 100 is complete control): Preemergence, 500 g ai/ha, visual injury approx. 10 d
How it was run: as §2

[20] = tested on: barnyardgrass (Echinochloa crus-galli); assay: Test A preemergence; conditions: for Plant response rating, Barnyardgrass: 125 g ai/ha, preemergence, 0 to 100 scale (0 no effect, 100 complete control); for Barnyardgrass plant response rating (0 to 100 scale, 0 is no effect, 100 is complete control): Preemergence, 500 g ai/ha, visual injury approx. 10 d
How it was run: as §2

| Compound | Blackgrass plant response rating [5] | Plant response rating, Blackgrass [5] | Ragweed plant response rating [6] | Plant response rating, Ragweed [6] | Ryegrass, Italian plant response rating [7] | Plant response rating, Ryegrass, Italian [7] | Pigweed plant response rating [8] | Plant response rating, Pigweed [8] | Wheat plant response rating [9] | Plant response rating, Wheat [9] | Foxtail, Giant plant response rating [10] | Plant response rating, Foxtail, Giant [10] | Corn plant response rating [11] | Plant response rating, Corn [11] | Kochia plant response rating [12] | Plant response rating, Kochia [12] | Galium plant response rating [13] | Plant response rating, Galium [13] | Barnyardgrass plant response rating [14] | Plant response rating, Barnyardgrass [14] | other results |
| --- | --- | --- | --- | --- | --- | --- | --- | --- | --- | --- | --- | --- | --- | --- | --- | --- | --- | --- | --- | --- | --- |
| Cc1cc(NC(=O)C2C(=O)NCC2c2cccc(OC(F)F)c2)ccc1F (stereo not drawn) [Compound 424] | 0 | 0 | 0 | 0 | 0 | 0 | 0 | 0 | 0 | 0 | 40 | 70 | 0 | 0 | 0 | 0 | 0 | 0 | 50 | 70 | Plant response rating, Sedge, Umbrella ([1]; 500 g ai/ha): 0; Plant response rating, Ducksalad ([2]; 500 g ai/ha): 30; Plant response rating, Rice ([3]; 500 g ai/ha): 0; Plant response rating, Barnyardgrass ([4]; 500 g ai/ha): 0; Plant response rating, Ragweed [15]: 0; Ragweed plant response rating (0 to 100 scale, 0 is no effect, 100 is complete control) [15]: 0; Plant response rating, Ryegrass, Italian [16]: 0; Ryegrass, Italian plant response rating (0 to 100 scale, 0 is no effect, 100 is complete control) [16]: 0; Plant response rating, Pigweed [17]: 0; Pigweed plant response rating (0 to 100 scale, 0 is no effect, 100 is complete control) [17]: 0; Plant response rating, Foxtail, Giant [18]: 70; Foxtail, Giant plant response rating (0 to 100 scale, 0 is no effect, 100 is complete control) [18]: 90; Plant response rating, Kochia [19]: 0; Kochia plant response rating (0 to 100 scale, 0 is no effect, 100 is complete control) [19]: 0; Plant response rating, Barnyardgrass [20]: 30; Barnyardgrass plant response rating (0 to 100 scale, 0 is no effect, 100 is complete control) [20]: 90 |
| COc1c(F)ccc(NC(=O)C2C(=O)N(C)CC2c2cccc(OC(F)(F)C(F)F)c2)c1F (stereo not drawn) [Compound 430] | 20 | 70 | 0 | 30 | 30 | 50 | 30 | 50 | 20 | 50 | 80 | 80 | 50 | 70 | 20 | 50 | 50 | 60 | 80 | 90 | Plant response rating, Sedge, Umbrella ([1]; 250 g ai/ha): 0; Plant response rating, Ducksalad ([2]; 250 g ai/ha): 100; Plant response rating, Rice ([3]; 250 g ai/ha): 20; Plant response rating, Barnyardgrass ([4]; 250 g ai/ha): 65; Plant response rating, Ragweed [15]: 30; Ragweed plant response rating (0 to 100 scale, 0 is no effect, 100 is complete control) [15]: 50; Plant response rating, Ryegrass, Italian [16]: 40; Ryegrass, Italian plant response rating (0 to 100 scale, 0 is no effect, 100 is complete control) [16]: 50; Plant response rating, Pigweed [17]: 0; Pigweed plant response rating (0 to 100 scale, 0 is no effect, 100 is complete control) [17]: 50; Plant response rating, Foxtail, Giant [18]: 90; Foxtail, Giant plant response rating (0 to 100 scale, 0 is no effect, 100 is complete control) [18]: 90; Plant response rating, Kochia [19]: 30; Kochia plant response rating (0 to 100 scale, 0 is no effect, 100 is complete control) [19]: 70; Plant response rating, Barnyardgrass [20]: 80; Barnyardgrass plant response rating (0 to 100 scale, 0 is no effect, 100 is complete control) [20]: 90 |
| CN1CC(c2ccc(Cl)cc2)C(C(=O)Nc2ccccc2F)C1=O (stereo not drawn) [Compound 433] | 30 | 40 | 0 | 50 | 30 | 60 | 20 | 20 | 30 | 60 | 80 | 80 | 0 | 30 | 40 | 50 | 50 | 50 | 90 | 90 | Plant response rating, Sedge, Umbrella ([1]; 250 g ai/ha): 0; Plant response rating, Ducksalad ([2]; 250 g ai/ha): 98; Plant response rating, Rice ([3]; 250 g ai/ha): 0; Plant response rating, Barnyardgrass ([4]; 250 g ai/ha): 70; Plant response rating, Ragweed [15]: 70; Ragweed plant response rating (0 to 100 scale, 0 is no effect, 100 is complete control) [15]: 60; Plant response rating, Ryegrass, Italian [16]: 20; Ryegrass, Italian plant response rating (0 to 100 scale, 0 is no effect, 100 is complete control) [16]: 60; Plant response rating, Pigweed [17]: 20; Pigweed plant response rating (0 to 100 scale, 0 is no effect, 100 is complete control) [17]: 70; Plant response rating, Foxtail, Giant [18]: 90; Foxtail, Giant plant response rating (0 to 100 scale, 0 is no effect, 100 is complete control) [18]: 90; Plant response rating, Kochia [19]: 70; Kochia plant response rating (0 to 100 scale, 0 is no effect, 100 is complete control) [19]: 80; Plant response rating, Barnyardgrass [20]: 90; Barnyardgrass plant response rating (0 to 100 scale, 0 is no effect, 100 is complete control) [20]: 90 |
